Laboratory results reported in US20260265274A1, “Cyclic Boronic Esters and Their Uses” (Principia Biopharma Inc., priority 2022, published 2026).

Tests used:
Assay type in all cases: physicochemical
[1] = Stability in SGF (Simulated Gastric Fluid), ester content by UPLC; details: SGF pH 1.2, 10 mg/mL in ACN diluted to 0.5 mg/mL
Procedure: (§1) The diluted solution was then analyzed for ester content by UPLC.
(§2) The same set of experiments were performed for the pinacol and pinanediol esters of Boronic Acid 1 except that additional ACN was added when diluting into SIF in order to maintain the compounds in solution (final ACN concentration of 20%-30% in diluted solutions in SIF).

[2] = Stability in SIF (Simulated Intestinal Fluid), ester content by UPLC; details: SIF pH 6.8, 10 mg/mL in ACN diluted to 0.5 mg/mL, pinacol and pinanediol esters with 20%-30% final ACN
Procedure: as §1, §2

[3] = Open dish stability study at 40° C./75% RH in open glass vials; details: for % Peak Area by UPLC, 2 weeks / % Peak Area by UPLC, Initial: 40° C./75% RH open; for Open dish stability, result in words: 40° C./75% RH, open glass vials

Row | % Peak Area by UPLC, 2 weeks [3] | % Peak Area by UPLC, Initial [3] | Open dish stability, result in words [3] | SMILES | Conversion of ester to Boronic Acid 1 in SGF [1] | Conversion of ester to Boronic Acid 1 in SIF [2]
1 | 70.9% | 95.5% | significantly degraded after two weeks | C[C@@H]1CN(C(C)(C)C=C(C#N)C(=O)N2CCCC[C@@H](OC(=O)N[C@@H](Cc3ccccc3)B3OC(C)(C)C(C)(C)O3)C2)CCO1 [Pinacol ester of Boronic Acid 1, (R)-1-(2-cyano-4-methyl-4-((R)-2-methylmorpholino)pent-2-enoyl)azepan-3-yl ((R)-2-phenyl-1-(4,4,5,5-tetramethyl-1,3,2-dioxaborolan-2-yl)ethyl)carbamate] | completely converted to Boronic Acid 1 immediately | completely converted to Boronic Acid 1 immediately
2 | 90.6% | 93.5% | significantly degraded after two weeks | C[C@@H]1CN(C(C)(C)/C=C(\C#N)C(=O)N2CCCC[C@@H](OC(=O)N[C@@H](Cc3ccccc3)B3O[C@@H]4C[C@@H]5C[C@@H](C5(C)C)[C@]4(C)O3)C2)CCO1 [Pinanediol ester of Boronic Acid 1] | only partially converted to Boronic Acid 1 | only partially converted to Boronic Acid 1
3 | 85.9% | 95.8% | significantly degraded after two weeks | C[C@@H]1CN(C(C)(C)/C=C(\C#N)C(=O)N2CCCC[C@@H](OC(=O)N[C@@H](Cc3ccccc3)B(O)O)C2)CCO1 [Boronic Acid 1, ((R)-1-(((((R)-1-((E)-2-cyano-4-methyl-4-((R)-2-methylmorpholino)pent-2-enoyl)azepan-3-yl)oxy)carbonyl)amino)-2-phenylethyl)boronic acid] | – | –
